Data on nine compounds can be found in patent publication US20230117831A1, “MULTI-FUNCTIONAL CHIMERIC MOLECULES” (THE BROAD INSTITUTE, INC., priority 2020, published 2023).

The target of one test is BRD4 (Abl) (Homo sapiens, UniProt O60885+P00519). Put plainly: tyrosine phosphorylation Abl-BRD4 (Millipore). The test is classed as biochemical. The note with it: relative to control DMSO. How it is done: Multi-functional molecules comprising a BRD4 localizing moiety and an Abl activator moiety were assayed for tyrosine phosphorylation activity (Millipore)(FIG. 91). […] DPH derived PHICS phosphorylation levels, and thus, Abl engagement, varied by attachment of the DPH derivative to the multifunctional chimeric molecule via orienting adaptor and linker (FIG. 92).

For a further test, the target named is PKC gamma (Homo sapiens, UniProt P05129). The conditions noted are these: PKC gamma; read-out: Kd; cited from earlier work.
The test system of test [1] is breast carcinoma cell lines MCF-7 and MDA-MB-231. The note with it: cited from earlier work.
Another test deals with PKC delta (Homo sapiens, UniProt Q05655). The note with it: PKC delta; read-out: Kd; cited from earlier work.
For a further test, the target named is PKCalpha (Homo sapiens, UniProt P17252). The note with it: PKC alpha; read-out: Kd; cited from earlier work.
The target in another test is T1, PKC epsilon (Homo sapiens, UniProt Q02156).
T1 sequence (Q02156 1-737): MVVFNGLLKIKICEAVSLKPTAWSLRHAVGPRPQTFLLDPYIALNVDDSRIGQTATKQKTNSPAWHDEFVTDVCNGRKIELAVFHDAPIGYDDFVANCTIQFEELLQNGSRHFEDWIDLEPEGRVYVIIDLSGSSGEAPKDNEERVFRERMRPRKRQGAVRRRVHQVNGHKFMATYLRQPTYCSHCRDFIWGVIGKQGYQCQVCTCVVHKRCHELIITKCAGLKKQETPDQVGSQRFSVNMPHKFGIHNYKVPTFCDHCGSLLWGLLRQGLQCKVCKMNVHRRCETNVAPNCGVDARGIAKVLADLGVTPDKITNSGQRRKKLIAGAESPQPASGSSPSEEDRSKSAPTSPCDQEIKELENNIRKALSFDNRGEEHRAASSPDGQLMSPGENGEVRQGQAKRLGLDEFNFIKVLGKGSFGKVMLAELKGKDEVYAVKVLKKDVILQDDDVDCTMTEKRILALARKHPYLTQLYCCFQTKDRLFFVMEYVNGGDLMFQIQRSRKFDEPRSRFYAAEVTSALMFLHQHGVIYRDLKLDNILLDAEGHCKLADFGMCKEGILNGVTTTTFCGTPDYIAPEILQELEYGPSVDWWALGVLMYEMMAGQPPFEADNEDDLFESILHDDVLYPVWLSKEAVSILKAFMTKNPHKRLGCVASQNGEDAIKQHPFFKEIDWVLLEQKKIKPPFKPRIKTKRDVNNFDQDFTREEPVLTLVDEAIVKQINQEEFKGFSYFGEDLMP
The conditions noted are these: PKC epsilon; read-out: Kd; cited from earlier work.

The target in a further test is PKC beta (Homo sapiens, UniProt P05771). The conditions noted are these: PKC beta; read-out: Kd; cited from earlier work.
The target of a further test is BRAF (Homo sapiens, UniProt P15056). The note with it: cited from earlier work.
For another test, the target named is PKCα (Homo sapiens, UniProt P17252). Put plainly: ADP-Glo kinase activation, CREBtide peptide. More on the design: GST; purchased SignalChem P61-18G. The test is classed as biochemical. How it is done: ADP-Glo assay was performed with PHICS (PKC) in a similar manner with some modifications as follows. In a 96 well plate (white, flat bottom), similar concentration series of PHICS (2.1, 2.2, 2.3, 2.4 and 2.5) were prepared using same kinase assay buffer and incubated with 2 ng of PKC, 0.2 μg/μL CREBtide peptide and 50 μM ATP for 1 hr at room temperature before incubation with ADP-Glo assay reagents.
In general terms: ADP-Glo turns the ADP formed in a reaction into a luminescent signal.

The target in a further test is PKC eta (Homo sapiens, UniProt P24723). The note with it: read-out: Kd; cited from earlier work.
For the next test, the target named is BRD4 (AMPK) (Homo sapiens, UniProt O60885+Q13131+Q9Y478). Put plainly: in vitro kinase assay, BRD4 phosphorylation by AMPK with/without AMP. Format: biochemical. The note with it: 1 uM compound, with and without 100 uM AMP. How it is done:
In vitro kinase assay was conducted for BRD4 phosphorylation by AMPK (1 uM compound). Compounds MS231, and VS806 tested are depicted below.
Compounds MS231, VS806 and VS804 were tested with and without 100 uM AMP. ADP glo for BRD4 phosphorylation by AMPK with and without AMP was conducted. The addition of AMP enhanced the phosphorylation signal, with ADP production measured at 2 hours, 20 nM AMPK.

Another test deals with BTK (Homo sapiens, UniProt Q06187). The conditions noted are these: cited from earlier work.
The next test deals with FGFR1 (Homo sapiens, UniProt P11362). The note with it: cited from earlier work.
The target of a further test is T2, DDR2 (Homo sapiens, UniProt Q16832).
T2 sequence (Q16832 22-855): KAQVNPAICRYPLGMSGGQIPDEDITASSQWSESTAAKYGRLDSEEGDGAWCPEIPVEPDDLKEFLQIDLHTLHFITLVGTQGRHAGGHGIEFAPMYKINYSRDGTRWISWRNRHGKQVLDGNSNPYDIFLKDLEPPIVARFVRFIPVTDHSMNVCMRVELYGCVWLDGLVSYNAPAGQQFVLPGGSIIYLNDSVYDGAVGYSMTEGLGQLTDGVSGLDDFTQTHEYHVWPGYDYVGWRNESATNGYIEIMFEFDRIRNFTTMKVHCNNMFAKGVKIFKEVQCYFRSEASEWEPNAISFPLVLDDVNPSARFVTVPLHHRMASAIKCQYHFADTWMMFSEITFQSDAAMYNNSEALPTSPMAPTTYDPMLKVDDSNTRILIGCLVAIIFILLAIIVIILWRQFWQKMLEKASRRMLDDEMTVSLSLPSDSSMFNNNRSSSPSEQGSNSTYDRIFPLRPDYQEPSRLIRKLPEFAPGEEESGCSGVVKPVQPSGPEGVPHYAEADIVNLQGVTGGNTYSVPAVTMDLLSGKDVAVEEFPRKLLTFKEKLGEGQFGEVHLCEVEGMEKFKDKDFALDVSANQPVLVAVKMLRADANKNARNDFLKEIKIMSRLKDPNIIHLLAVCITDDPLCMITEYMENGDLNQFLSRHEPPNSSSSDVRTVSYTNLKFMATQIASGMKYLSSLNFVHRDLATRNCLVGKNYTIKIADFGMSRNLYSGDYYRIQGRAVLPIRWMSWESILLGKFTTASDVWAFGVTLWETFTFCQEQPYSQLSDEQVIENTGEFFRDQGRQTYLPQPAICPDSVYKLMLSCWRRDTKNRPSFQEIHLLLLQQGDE
The conditions noted are these: cited from earlier work.

The next test has as its target LYN [isoform a] (Homo sapiens, UniProt P07948). The conditions noted are these: cited from earlier work.
The next test concerns the target TIE2 (Homo sapiens, UniProt Q02763). The conditions noted are these: cited from earlier work.
For a further test, the target named is FYN [isoform a] (Homo sapiens, UniProt P06241). The conditions noted are these: cited from earlier work.
For the next test, the target named is RET (Homo sapiens, UniProt P07949). The note with it: cited from earlier work.

SMILES strings stand for the structures. pKd: −log10 of the molar value.

The term pKd denotes −log10 of the Kd, conventionally taken in molar units.

Sequence of RET (P07949 29-1114, species assumed): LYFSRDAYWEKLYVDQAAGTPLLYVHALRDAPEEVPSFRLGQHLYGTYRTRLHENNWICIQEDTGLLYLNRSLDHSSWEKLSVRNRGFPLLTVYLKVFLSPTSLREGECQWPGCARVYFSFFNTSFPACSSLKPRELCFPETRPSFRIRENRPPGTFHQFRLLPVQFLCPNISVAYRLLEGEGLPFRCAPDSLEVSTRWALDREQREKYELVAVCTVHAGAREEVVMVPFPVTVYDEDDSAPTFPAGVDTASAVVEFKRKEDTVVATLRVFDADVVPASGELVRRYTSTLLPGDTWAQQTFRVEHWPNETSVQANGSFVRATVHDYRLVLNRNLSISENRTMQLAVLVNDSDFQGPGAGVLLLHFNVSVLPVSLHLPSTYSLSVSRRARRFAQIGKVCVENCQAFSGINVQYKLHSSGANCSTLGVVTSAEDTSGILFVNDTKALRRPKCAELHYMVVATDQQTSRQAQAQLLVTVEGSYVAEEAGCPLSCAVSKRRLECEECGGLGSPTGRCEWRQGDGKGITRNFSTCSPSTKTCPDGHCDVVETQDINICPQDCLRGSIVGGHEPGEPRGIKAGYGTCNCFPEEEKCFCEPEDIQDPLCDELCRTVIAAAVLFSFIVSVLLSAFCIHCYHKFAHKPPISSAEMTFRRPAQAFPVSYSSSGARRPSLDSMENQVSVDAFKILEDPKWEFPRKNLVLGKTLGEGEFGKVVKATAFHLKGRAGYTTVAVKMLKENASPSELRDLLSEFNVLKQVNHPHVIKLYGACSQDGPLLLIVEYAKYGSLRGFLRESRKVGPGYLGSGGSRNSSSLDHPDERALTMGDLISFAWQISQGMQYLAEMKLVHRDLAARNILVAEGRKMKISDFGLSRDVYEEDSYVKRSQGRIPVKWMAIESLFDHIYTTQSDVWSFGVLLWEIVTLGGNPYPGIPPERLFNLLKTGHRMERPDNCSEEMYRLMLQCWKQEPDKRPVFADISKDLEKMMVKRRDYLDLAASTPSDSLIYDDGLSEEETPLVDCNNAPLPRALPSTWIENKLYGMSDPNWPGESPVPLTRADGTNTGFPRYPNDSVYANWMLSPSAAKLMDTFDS
Sequence of LYN [isoform a] (P07948 whole entry, canonical isoform): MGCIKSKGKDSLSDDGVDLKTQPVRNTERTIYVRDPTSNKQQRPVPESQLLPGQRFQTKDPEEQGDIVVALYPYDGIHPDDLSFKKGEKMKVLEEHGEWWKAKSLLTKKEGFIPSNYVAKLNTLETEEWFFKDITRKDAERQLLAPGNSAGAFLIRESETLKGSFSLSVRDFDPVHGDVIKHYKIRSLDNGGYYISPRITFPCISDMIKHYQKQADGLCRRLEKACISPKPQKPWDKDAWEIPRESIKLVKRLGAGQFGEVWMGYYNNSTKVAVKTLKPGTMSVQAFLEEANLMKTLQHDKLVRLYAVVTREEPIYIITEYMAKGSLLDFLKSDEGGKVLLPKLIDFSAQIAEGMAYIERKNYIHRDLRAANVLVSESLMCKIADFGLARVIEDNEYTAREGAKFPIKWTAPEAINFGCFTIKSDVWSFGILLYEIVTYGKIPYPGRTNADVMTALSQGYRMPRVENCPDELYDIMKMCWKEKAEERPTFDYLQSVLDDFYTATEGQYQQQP
Sequence of FGFR1 (P11362 22-822, species assumed): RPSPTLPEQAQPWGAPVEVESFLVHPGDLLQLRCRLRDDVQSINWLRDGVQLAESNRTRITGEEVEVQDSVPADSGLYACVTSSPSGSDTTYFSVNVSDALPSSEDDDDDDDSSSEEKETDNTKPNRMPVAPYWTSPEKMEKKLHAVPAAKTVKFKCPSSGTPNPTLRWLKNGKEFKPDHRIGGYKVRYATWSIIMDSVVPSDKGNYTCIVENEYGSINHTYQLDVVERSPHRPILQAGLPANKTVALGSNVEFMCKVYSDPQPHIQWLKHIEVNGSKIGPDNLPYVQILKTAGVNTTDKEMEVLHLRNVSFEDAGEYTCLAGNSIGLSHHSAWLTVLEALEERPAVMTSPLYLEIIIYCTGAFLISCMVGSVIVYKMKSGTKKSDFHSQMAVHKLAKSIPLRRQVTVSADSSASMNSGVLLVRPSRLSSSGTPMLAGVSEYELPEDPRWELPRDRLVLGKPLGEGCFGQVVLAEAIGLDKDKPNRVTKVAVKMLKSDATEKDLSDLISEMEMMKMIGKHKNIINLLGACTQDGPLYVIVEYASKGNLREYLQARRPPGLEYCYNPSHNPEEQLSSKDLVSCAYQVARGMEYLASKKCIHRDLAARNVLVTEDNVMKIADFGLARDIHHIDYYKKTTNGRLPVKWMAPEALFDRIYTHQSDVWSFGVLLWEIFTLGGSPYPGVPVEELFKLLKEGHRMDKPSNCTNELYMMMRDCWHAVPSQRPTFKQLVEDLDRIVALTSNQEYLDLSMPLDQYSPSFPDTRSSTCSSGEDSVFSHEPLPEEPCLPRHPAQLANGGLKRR
Sequence of FYN [isoform a] (P06241 whole entry, canonical isoform): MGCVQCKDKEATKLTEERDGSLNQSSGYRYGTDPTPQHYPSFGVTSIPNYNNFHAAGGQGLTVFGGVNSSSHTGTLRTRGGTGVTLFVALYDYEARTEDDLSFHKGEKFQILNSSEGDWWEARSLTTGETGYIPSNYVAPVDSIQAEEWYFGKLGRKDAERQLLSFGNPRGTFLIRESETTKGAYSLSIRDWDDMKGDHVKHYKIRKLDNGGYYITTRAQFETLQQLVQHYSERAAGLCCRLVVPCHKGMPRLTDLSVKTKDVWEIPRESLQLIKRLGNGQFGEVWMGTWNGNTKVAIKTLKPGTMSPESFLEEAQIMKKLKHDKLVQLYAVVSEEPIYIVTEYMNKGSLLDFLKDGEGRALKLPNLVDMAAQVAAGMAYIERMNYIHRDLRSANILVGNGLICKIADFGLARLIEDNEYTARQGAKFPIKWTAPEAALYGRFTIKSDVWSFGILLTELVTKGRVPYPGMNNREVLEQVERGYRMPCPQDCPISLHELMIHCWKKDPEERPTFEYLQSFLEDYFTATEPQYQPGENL
Sequence of TIE2 (Q02763 23-1124, species assumed): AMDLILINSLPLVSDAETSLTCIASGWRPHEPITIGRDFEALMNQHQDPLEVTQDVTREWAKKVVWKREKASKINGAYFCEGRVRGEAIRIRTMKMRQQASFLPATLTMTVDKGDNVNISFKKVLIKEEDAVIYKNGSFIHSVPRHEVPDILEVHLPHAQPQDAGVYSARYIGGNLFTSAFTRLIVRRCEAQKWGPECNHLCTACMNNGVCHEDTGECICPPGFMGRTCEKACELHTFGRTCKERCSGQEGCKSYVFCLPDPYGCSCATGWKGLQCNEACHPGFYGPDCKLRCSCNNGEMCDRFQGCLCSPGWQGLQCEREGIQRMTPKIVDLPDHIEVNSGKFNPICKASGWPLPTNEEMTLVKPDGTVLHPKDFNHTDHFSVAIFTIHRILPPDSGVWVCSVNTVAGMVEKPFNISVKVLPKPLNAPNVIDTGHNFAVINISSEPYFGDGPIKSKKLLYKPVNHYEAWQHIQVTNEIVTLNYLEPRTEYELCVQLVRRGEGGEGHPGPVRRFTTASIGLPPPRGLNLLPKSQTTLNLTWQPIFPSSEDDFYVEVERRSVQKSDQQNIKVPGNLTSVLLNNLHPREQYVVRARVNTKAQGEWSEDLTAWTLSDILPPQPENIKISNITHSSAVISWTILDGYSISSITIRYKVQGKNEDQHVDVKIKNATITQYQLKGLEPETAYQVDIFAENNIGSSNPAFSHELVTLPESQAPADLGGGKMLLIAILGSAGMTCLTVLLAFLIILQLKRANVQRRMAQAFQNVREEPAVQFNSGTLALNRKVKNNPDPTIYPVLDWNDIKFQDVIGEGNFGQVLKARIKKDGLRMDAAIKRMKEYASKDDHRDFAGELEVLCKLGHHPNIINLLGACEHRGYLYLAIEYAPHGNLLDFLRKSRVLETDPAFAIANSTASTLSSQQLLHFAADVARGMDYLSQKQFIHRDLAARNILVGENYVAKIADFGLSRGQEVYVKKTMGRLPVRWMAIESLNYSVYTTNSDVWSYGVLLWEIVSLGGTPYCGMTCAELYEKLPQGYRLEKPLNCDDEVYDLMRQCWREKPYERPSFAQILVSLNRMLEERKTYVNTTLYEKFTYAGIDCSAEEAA

Consider `Cc1sc2c(c1C)C(c1ccc(Cl)cc1)=NC(CC(=O)NCCOCCOCCOCCOCCC(=O)NC1=NN(c3ccc(Cl)c(Cl)c3)CC1)c1nnc(C)n1-2` (stereo not drawn) [VS850], for which the “tyrosine phosphorylation enzymatic activity” value at BRD4 (Abl) is “inactive”.
Take `CC(C)[C@H]1C(=O)N[C@H](CO)CCc2c[nH]c3cccc(c23)N1C`: the pKd is 7.71 on PKC gamma; 8.09 at PKC delta; 7.96 on PKCalpha; 7.66 at PKC epsilon; 8.21 at PKC beta. The “antiproliferative activity against breast carcinoma” value in [1] is “inactive against breast carcinoma”.
Consider `CC(C)(C)c1nc(-c2cccc(NS(=O)(=O)c3c(F)cccc3F)c2F)c(-c2ccnc(N)n2)s1` [Dabrafenib], for which, on BRAF, the ka is 467000 M⁻¹ s⁻¹ and the kd is 0.000288 s⁻¹.
For `Cc1sc2c(c1C)C(c1ccc(Cl)cc1)=NC(CC(=O)NCCCCCC(=O)NCc1ccc(COc3ccc4c(c3)N(C)[C@@H](C(C)C)C(=O)N[C@H](CO)C4)cc1)c1nnc(C)n1-2` (stereo partly drawn) [(R)-PHICS2.3], the “PKC activation (ADP-Glo)” value at PKCα is on record as “still activated”.
Regarding `C=C(C)[C@@]12OC3(c4ccccc4)O[C@@H]1[C@@H]1C4OC4(CO)C[C@]4(O)C(=O)C(C)=C[C@H]4[C@@]1(O3)[C@H](C)[C@H]2OC(=O)CCCCc1ccccc1` (stereo partly drawn), the pKd is 9.10 on PKC gamma; 8.61 on PKC eta; 8.66 at PKC delta; 9.09 on PKCalpha; 8.50 at PKC epsilon; 9.29 at PKC beta.
`Cc1sc2c(c1C)C(c1ccc(Cl)cc1)=N[C@@H](CC(=O)NCCOCCOCCOCCOCCC(=O)NCCOc1ccc(-c3cc4c(C(=O)O)c[nH]c4cc3Cl)cc1)c1nnc(C)n1-2` [VS806]: on BRD4 (AMPK), the “effect of addition of AMP on BRD4 phosphorylation signal” value is “enhances the phosphorylation signal”.
In the case of `Cc1sc2c(c1C)C(c1ccc(Cl)cc1)=NC(CC(=O)NCCOCCOCCOCCOCCC(=O)NC1=NN(c3ccc(Cl)c(Cl)c3)CC1)c1nnc(C)n1-2` (stereo not drawn) [VS801], the “tyrosine phosphorylation enzymatic activity” value at BRD4 (Abl) was “high tyrosine phosphorylation enzymatic activity”.
As to `Cc1ccc(C(=O)Nc2ccc(CN3CCN(C)CC3)c(C(F)(F)F)c2)cc1C#Cc1cnc2cccnn12` [Ponatinib], the ka on BTK was 21500 M⁻¹ s⁻¹; on FGFR1, 17900 M⁻¹ s⁻¹; on DDR2 it was 29800 M⁻¹ s⁻¹; on LYN [isoform a], 110000 M⁻¹ s⁻¹; on TIE2 it was 40200 M⁻¹ s⁻¹; at FYN [isoform a], 84900 M⁻¹ s⁻¹. For the same compound, the ka on RET is 118000 M⁻¹ s⁻¹. The kd at BTK was 0.0168 s⁻¹; on FGFR1, 0.000119 s⁻¹; on DDR2 it was 0.00014 s⁻¹; on LYN [isoform a], 5.4e-05 s⁻¹; at TIE2, 0.00268 s⁻¹; on FYN [isoform a], 8.93e-05 s⁻¹. For the same compound, on RET, the kd was 4.29e-05 s⁻¹. Also, the “log(ka)” value is 4.25 on FGFR1; 4.47 at DDR2; 5.04 on LYN [isoform a]; 4.60 at TIE2; 4.93 at FYN [isoform a]; 5.07 at RET. The “log(kd)” value is listed as −3.93 at FGFR1; −3.85 at DDR2; −4.27 at LYN [isoform a]; −2.57 on TIE2; −4.05 on FYN [isoform a]; −4.37 on RET.
On to `Cc1sc2c(c1C)C(c1ccc(Cl)cc1)=N[C@@H](CC(=O)NCc1cn(CCCCCC(=O)NCCOc3ccc(-c4cc5c(C(=O)O)c[nH]c5cc4Cl)cc3)nn1)c1nnc(C)n1-2` [MS231], for which the “effect of addition of AMP on BRD4 phosphorylation signal” value on BRD4 (AMPK) is “enhances the phosphorylation signal”.
